Results on 14 molecules are retold here after patent publication US10525041B2, “Fluoroalkyl-substituted aryltriazole derivatives and uses thereof” (BAYER PHARMA AKTIENGESELLSCHAFT, priority 2016, dated 2020).

In one experiment the target is T1, human V1a receptor (Homo sapiens, UniProt P37288).
T1 construct: expressed in transfected cells; host or cells: CHO K1 (ATCC), also stably transfected with a modified aequorin
Nature of the experiment: Cellular in vitro assay for vasopressin receptor activity, V1a cell line (aequorin luminescence). The conditions noted are these: for IC50: CHO cell line transfected with human V1a receptor, agonist [Arg8]-vasopressin at EC50 concentration, read-out: IC50hV1a; for ratio IC50 hV2/hV1a: ratio of the IC50 on human V2 to the IC50 on human V1a. Format: cell-based. The method, then: (§1) B-1. Cellular In Vitro Assay for Determining Vasopressin Receptor Activity
(§2) The identification of agonists and antagonists of the V1a and V2 vasopressin receptors from humans, rats and dogs as well as the quantification of the activity of the compounds of the invention is carried out using recombinant cell lines. These cell lines originally derive from a hamster's ovary epithelial cell (Chinese Hamster Ovary, CHO K1, ATCC: American Type Culture Collection, Manassas, Va. 20108, USA). The test cell lines constitutively express the human, rat or dog V1a or V2 receptors. In case of the Gαq-coupled V1a receptors, cells are also stably transfected with a modified form of the calcium-sensitive photoproteins aequorin (human and rat V1a) or obelin (dog V1a), which, after reconstitution with the cofactor coelenterazine, emit light when there are increases in free calcium concentrations [Rizzuto R, Simpson A W, Brini M, Pozzan T, Nature 358, 325-327 (1992); Illarionov B A, Bondar V S, Illarionova V A, Vysotski E S, Gene 153 (2), 273-274 (1995)]. The resulting vasopressin receptor cells react to stimulation of the recombinantly expressed V1a receptors by intracellular release of calcium ions, which can be quantified by the resulting photoprotein luminescence. The Gs-coupled V2 receptors are stably transfected into cell lines expressing the gene for firefly luciferase under control of a CRE-responsible promoter. Activation of V2 receptors induces the activation of the CRE-responsive promoter via cAMP increase, thereby inducing the expression of firefly luciferase. The light emitted by photoproteins of V1a cell lines as well as the light emitted by firefly luciferase of V2 cell lines corresponds to the activation or inhibition of the respective vasopressin receptor. The bioluminescence of the cell lines is detected using a suitable luminometer [Milligan G, Marshall F, Rees S, Trends in Pharmacological Sciences 17, 235-237 (1996)].
Vasopressin V1a Receptor Cell Lines:
On the day before the assay, the cells are plated out in culture medium (DMEM/F12, 2% FCS, 2 mM glutamine, 10 mM HEPES, 5 μg/ml coelenterazine) in 384-well microtiter plates and kept in a cell incubator (96% humidity, 5% v/v CO2, 37° C.). On the day of the assay, test compounds in various concentrations are placed for 10 minutes in the wells of the microtiter plate before the agonist [Arg^8]-vasopressin at EC50 concentration is added. The resulting light signal is measured immediately in a luminometer.
(§3) Table 1A below lists individual IC50 values for the compounds of the invention (including racemic mixtures as well as separated enantiomers) that were obtained from cell lines transfected with the human V1a or V2 receptor: […]

The next experiment deals with T2, human V2 receptor (Homo sapiens, UniProt P30518).
T2 construct: expressed in transfected cells; host or cells: CHO K1 (ATCC) line expressing firefly luciferase under a CRE-responsive promoter
T2 sequence (P30518 whole entry): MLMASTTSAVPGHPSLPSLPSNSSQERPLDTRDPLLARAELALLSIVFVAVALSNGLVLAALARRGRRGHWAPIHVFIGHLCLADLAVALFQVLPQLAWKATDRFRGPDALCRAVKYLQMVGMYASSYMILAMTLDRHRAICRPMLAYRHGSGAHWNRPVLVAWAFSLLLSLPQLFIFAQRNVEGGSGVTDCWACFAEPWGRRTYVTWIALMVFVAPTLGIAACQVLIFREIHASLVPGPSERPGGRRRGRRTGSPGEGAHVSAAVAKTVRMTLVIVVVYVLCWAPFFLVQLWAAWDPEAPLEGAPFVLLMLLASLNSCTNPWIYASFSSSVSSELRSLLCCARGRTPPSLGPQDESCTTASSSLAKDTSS
The experiment can be described thus: Cellular in vitro assay for vasopressin receptor activity, V2 cell line (CRE-luciferase). Format: cell-based. The conditions noted are these: CHO cell line transfected with human V2 receptor; agonist [Arg8]-vasopressin at EC50 concentration, 3 hours; read-out: IC50hV2. The procedure:
as §1, §2
Vasopressin V2 Receptor Cell Lines:
On the day before the assay, the cells are plated out in culture medium (DMEM/F12, 2% FCS, 2 mM glutamine, 10 mM HEPES) in 384-well microtiter plates and kept in a cell incubator (96% humidity, 5% v/v CO2, 37° C.). On the day of the assay, test compounds in various concentrations and the agonist [Arg^8]-vasopressin at EC50 concentration are added together to the wells, and plates are incubated for 3 hours in a cell incubator. Upon addition of the cell lysis reagent Triton™ and the substrate luciferin, luminescence of firefly luciferase is measured in a luminometer.
as §3

T1 sequence (P37288 whole entry): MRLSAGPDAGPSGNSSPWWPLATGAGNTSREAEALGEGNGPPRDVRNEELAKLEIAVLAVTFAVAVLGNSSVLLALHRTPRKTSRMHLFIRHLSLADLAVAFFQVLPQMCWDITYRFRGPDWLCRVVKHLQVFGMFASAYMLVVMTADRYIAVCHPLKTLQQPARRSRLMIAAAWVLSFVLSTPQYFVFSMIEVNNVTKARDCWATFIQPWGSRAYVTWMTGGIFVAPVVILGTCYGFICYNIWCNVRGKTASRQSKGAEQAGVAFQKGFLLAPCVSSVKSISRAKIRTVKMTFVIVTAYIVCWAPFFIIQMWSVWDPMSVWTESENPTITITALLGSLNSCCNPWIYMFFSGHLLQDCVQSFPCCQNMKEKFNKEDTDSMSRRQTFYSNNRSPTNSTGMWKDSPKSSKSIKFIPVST

`CC(F)c1nc(Cn2nc(-c3ccc(Cl)cc3)n(C[C@H](O)C(F)(F)F)c2=O)nn1-c1ccccc1Cl` (mixture of isomers) [Example 1, 5-(4-Chlorophenyl)-2-({1-(2-chlorophenyl)-5-[1-fluoroethyl]-1H-1,2,4-triazol-3-yl}methyl)-4-[(2S)-3,3,3-trifluoro-2-hydroxypropyl]-2,4-dihydro-3H-1,2,4-triazol-3-one]: on human V1a receptor, the IC50 turned out to be 0.35 nM and the “ratio IC50 hV2/hV1a” value stood at 2.0. Further, the IC50 on human V2 receptor stood at 0.7 nM.
For the molecule `CC(F)c1nc(Cn2nc(-c3ccc(Cl)cc3)n(C[C@H](O)C(F)(F)F)c2=O)nn1-c1cnccc1Cl` (mixture of isomers) [Example 4, 5-(4-Chlorophenyl)-2-({1-(4-chloropyridin-3-yl)-5-[1-fluoroethyl]-1H-1,2,4-triazol-3-yl}methyl)-4-[(2S)-3,3,3-trifluoro-2-hydroxypropyl]-2,4-dihydro-3H-1,2,4-triazol-3-one], at human V1a receptor, the IC50 stood at 2.05 nM and the “ratio IC50 hV2/hV1a” value is 9.0. The IC50 on human V2 receptor is 18.5 nM.
The matching figures for `CC(F)c1nc(Cn2nc(-c3ccc(Cl)cc3)n(C[C@H](O)C(F)(F)F)c2=O)nn1-c1cccc(Cl)c1` (mixture of isomers) [Example 16, 5-(4-Chlorophenyl)-2-({1-(3-chlorophenyl)-5-[1-fluoroethyl]-1H-1,2,4-triazol-3-yl}methyl)-4-[(2S)-3,3,3-trifluoro-2-hydroxypropyl]-2,4-dihydro-3H-1,2,4-triazol-3-one]: 16 nM, 0.0 and 0.58 nM.
As to `CC(F)c1nc(Cn2nc(-c3ccc(Cl)cc3)n(C[C@H](O)C(F)(F)F)c2=O)nn1-c1ncccc1Cl` (mixture of isomers) [Example 19, 5-(4-Chlorophenyl)-2-({1-(3-chloropyridin-2-yl)-5-[1-fluoroethyl]-1H-1,2,4-triazol-3-yl}methyl)-4-[(2S)-3,3,3-trifluoro-2-hydroxypropyl]-2,4-dihydro-3H-1,2,4-triazol-3-one], at human V1a receptor, the IC50 turned out to be 2.85 nM and the “ratio IC50 hV2/hV1a” value is listed as 5.2. The IC50 at human V2 receptor is 14.7 nM.
The matching figures for `CC(F)c1nc(Cn2nc(-c3ccc(Cl)cc3)n(C[C@H](O)C(F)(F)F)c2=O)nn1-c1ccccc1C(F)(F)F` (mixture of isomers) [Example 22, 5-(4-Chlorophenyl)-2-({5-[1-fluoroethyl]-1-[2-(trifluoromethyl)phenyl]-1H-1,2,4-triazol-3-yl}methyl)-4-[(2S)-3,3,3-trifluoro-2-hydroxypropyl]-2,4-dihydro-3H-1,2,4-triazol-3-one]: 3.9 nM, 3.5 and 13.5 nM.
The matching figures for `CC(F)c1nc(Cn2nc(-c3ccc(Cl)cc3)n(C[C@H](O)C(F)(F)F)c2=O)nn1-c1ccccc1OC(F)(F)F` (mixture of isomers) [Example 25, 5-(4-Chlorophenyl)-2-({5-[1-fluoroethyl]-1-[2-(trifluoromethoxy)phenyl]-1H-1,2,4-triazol-3-yl}methyl)-4-[(2S)-3,3,3-trifluoro-2-hydroxypropyl]-2,4-dihydro-3H-1,2,4-triazol-3-one]: 2.7 nM, 6.3 and 17 nM.
Turning to `CCc1ccccc1-n1nc(Cn2nc(-c3ccc(Cl)cc3)n(C[C@H](O)C(F)(F)F)c2=O)nc1C(C)F` (mixture of isomers) [Example 28, 5-(4-Chlorophenyl)-2-({1-(2-ethylphenyl)-5-[1-fluoroethyl]-1H-1,2,4-triazol-3-yl}methyl)-4-[(2S)-3,3,3-trifluoro-2-hydroxypropyl]-2,4-dihydro-3H-1,2,4-triazol-3-one], at human V1a receptor, the IC50 came to 1.85 nM and the “ratio IC50 hV2/hV1a” value amounted to 0.4. The IC50 at human V2 receptor turned out to be 0.76 nM.
Taken in the same sequence, the figures for `CC(F)c1nc(Cn2nc(-c3ccc(Cl)cc3)n(C[C@H](O)C(F)(F)F)c2=O)nn1-c1ccccc1OC(F)F` (mixture of isomers) [Example 31, 5-(4-Chlorophenyl)-2-({1-[2-(difluoromethoxy)phenyl]-5-[1-fluoroethyl]-1H-1,2,4-triazol-3-yl}methyl)-4-[(2S)-3,3,3-trifluoro-2-hydroxypropyl]-2,4-dihydro-3H-1,2,4-triazol-3-one] were 1.75 nM, 2.6 and 4.58 nM.
Take `Cc1ccccc1-n1nc(Cn2nc(-c3ccc(Cl)cc3)n(C[C@H](O)C(F)(F)F)c2=O)nc1C(C)F` (mixture of isomers) [Example 34, 5-(4-Chlorophenyl)-2-({5-[1-fluoroethyl]-1-(2-methylphenyl)-1H-1,2,4-triazol-3-yl}methyl)-4-[(2S)-3,3,3-trifluoro-2-hydroxypropyl]-2,4-dihydro-3H-1,2,4-triazol-3-one]: on human V1a receptor, the IC50 came to 0.71 nM and the “ratio IC50 hV2/hV1a” value came to 1.2. For the same molecule, at human V2 receptor, the IC50 is 0.84 nM.
Consider `CC(F)c1nc(Cn2nc(-c3ccc(Cl)cc3)n(C[C@H](O)C(F)(F)F)c2=O)nn1-c1ccccc1[N+](=O)[O-]` (mixture of isomers) [Example 37, 5-(4-Chlorophenyl)-2-({5-[1-fluoroethyl]-1-(2-nitrophenyl)-1H-1,2,4-triazol-3-yl}methyl)-4-[(2S)-3,3,3-trifluoro-2-hydroxypropyl]-2,4-dihydro-3H-1,2,4-triazol-3-one], for which the IC50 turned out to be 3.35 nM at human V1a receptor and 10 nM on human V2 receptor. In addition, the “ratio IC50 hV2/hV1a” value on human V1a receptor is on record as 3.0.
For the molecule `CC(F)c1nc(Cn2nc(-c3ccc(Cl)cc3)n(C[C@H](O)C(F)(F)F)c2=O)nn1-c1ccccc1C#N` (mixture of isomers) [Example 38, 2-{3-({3-(4-Chlorophenyl)-5-oxo-4-[(2S)-3,3,3-trifluoro-2-hydroxypropyl]-4,5-dihydro-1H-1,2,4-triazol-1-yl}methyl)-5-[1-fluoroethyl]-1H-1,2,4-triazol-1-yl}benzonitrile], on human V1a receptor, the IC50 amounted to 82 nM and the “ratio IC50 hV2/hV1a” value was found to be 2.0. The IC50 on human V2 receptor was 165 nM.
Taken in the same sequence, the figures for `CC(F)c1nc(Cn2nc(-c3ccc(Cl)cc3)n(C[C@H](O)C(F)(F)F)c2=O)nn1-c1ccccc1S(N)(=O)=O` (mixture of isomers) [Example 41, 2-{3-({3-(4-Chlorophenyl)-5-oxo-4-[(2S)-3,3,3-trifluoro-2-hydroxypropyl]-4,5-dihydro-1H-1,2,4-triazol-1-yl}methyl)-5-[1-fluoroethyl]-1H-1,2,4-triazol-1-yl}benzenesulfonamide] were 84.8 nM, 3.5 and 292 nM.
With `CCOc1ccccc1-n1nc(Cn2nc(-c3ccc(Cl)cc3)n(C[C@H](O)C(F)(F)F)c2=O)nc1C(C)F` (mixture of isomers) [Example 42, 5-(4-Chlorophenyl)-2-({1-(2-ethoxyphenyl)-5-[1-fluoroethyl]-1H-1,2,4-triazol-3-yl}methyl)-4-[(2S)-3,3,3-trifluoro-2-hydroxypropyl]-2,4-dihydro-3H-1,2,4-triazol-3-one], the IC50 is 1.9 nM on human V1a receptor and 4.95 nM on human V2 receptor. Also, the “ratio IC50 hV2/hV1a” value on human V1a receptor amounted to 2.6.
Taken in the same sequence, the figures for `CC(F)c1nc(Cn2nc(-c3ccc(Cl)cc3)n(C[C@H](O)C(F)(F)F)c2=O)nn1-c1c(Cl)cccc1Cl` (mixture of isomers) [Example 43, 5-(4-Chlorophenyl)-2-({1-(2,6-dichlorophenyl)-5-[1-fluoroethyl]-1H-1,2,4-triazol-3-yl}methyl)-4-[(2S)-3,3,3-trifluoro-2-hydroxypropyl]-2,4-dihydro-3H-1,2,4-triazol-3-one] were 2.05 nM, 3.1 nM and 1.5.
